# Experimental data as given in paper PMC8248988, “A signal capture and proofreading mechanism for the KDEL-receptor explains selectivity and dynamic range in ER retrieval” (eLife, 2021).
# Tested on: ERP72
# Assay: ER chaperone secretion assay, ERP72
# Assay type: cell-based, human
# Excerpt: Figure 1. ER retrieval signal abundance and affinity are not correlated. (a) Sequence logos for ER resident proteins with C-terminal KDEL retrieval signals and variants thereof calculated using frequency or protein abundance ([Itzhak et al., 2017]; [Itzhak et al., 2016]). (b) Combined cellular concentrations of ER resident proteins with canonical KDEL, RDEL, and HDEL retrieval sequences in HeLa cells and mouse brain. (c) Competition binding assays for [^3H]-TAEHDEL and unlabelled TAEKDEL, TAERDEL, and TAEHDEL to the KDEL receptor. IC50 values for the competing peptides were used to calculate the apparent KDwith the Cheng-Prusoff equation ([Cheng and Prusoff, 1973]). (d) Endogenous KDEL receptor redistribution was measured in COS-7 cells in the absence (-ligand) or presence of K/R/H/A/DDEL (mScarlet-xDEL^sec). TGN46 was used as a Golgi marker. Scale bar is 10 µm. […] The individual data points for the fraction of KDEL receptor fluorescence in the Golgi are plotted on the upper axes with sample sizes and p values. […] Endogenous ER chaperone secretion was measured by western blotting after challenge with different retrieval signals, and plotted as a bar graph showing mean ± SEM (n = 3). […] (a) Distribution of human KDELR1 and (b) KDELR2 was measured in COS-7 cells in the absence (-ligand) or presence of K/R/H/A/DDEL retrieval signals (K/R/H/A/DDEL^sec). […]
substance,measurement,setting,value
"ADEL [pcDNA3.1 hGHss-mScarlet-H. sapiens BiP639-654K651A (ADEL^SEC), secreted mScarlet fusion with human BiP C-terminus, ADEL signal]",ERP72 secretion after challenge with retrieval signal,"mean, HeLa S3, 24 hr, Western blot densitometry",4.2
same,ERP72 secretion after challenge with retrieval signal,replicate 2,1.0
